# Measurements: patent publication US6007814A, “Therapeutic uses of the hypervariable region of monoclonal antibody M195 and constructs thereof” (priority 1992, dated 1999)
# Assays:
# Type in all cases: cell-based, human
# BFU-E = assay: Clonogenic assay of normal bone marrow progenitors, BFU-E; details: normal BM; 4HC 100 μM, VP-16 5 μg/ml; 1 hr at 37° C.; scored at day 14; mean ± SD vs control cultures
# Experimental: (§1) Bone Marrow Cells. Bone marrow was aspirated from the posterior iliac crest of healthy volunteers after obtaining written informed consent and BM mononuclear cells were collected after Ficoll-Hypaque gradient (1.077 g/cm3).
# (§2) Incubation Procedure and Culture Techniques. Tumor cells and normal BM cells were adjusted to a concentration of 2×10^6 /ml and 20×10^6 /ml, respectively. […] After completion of 1 hr incubation at 37° C., the cells were put on ice for five minutes and washed twice with RPMI supplemented with FCS. To simulate "ex vivo" BM purging conditions, the HL-60 cells were also incubated together with irradiated (3,000 cGy) BM cells (1:10 ratio). […] Cells were incubated at 37° C. in humidified atmosphere of 5% of CO2 in air and scored for colonies (>50 cells) after 7 days of incubation using an inverted microscope.
# (§3) After treatment, normal bone marrow cells were assayed for colonies derived from CFU-GM, BFU-E and CFU-GEM as already described (150). […] Quadruplicate cultures were incubated as described above and the colonies were scored after 14 days of incubation. […] Colonies (>20 cells) were scored after 10 days of incubation.
# (§4) DATA ANALYSIS. All experiments were performed three or more times and the mean+standard deviation (SD) values of each experiment were calculated. Colony counts after drug treatment were expressed as a percent of the untreated control cells.
# HL-60 cell line = assay: HL-60 clonogenic assay (colony-forming inhibition) after ex vivo purging treatment; details: 4HC 100 μM, VP-16 5 μg/ml, 1 hr incubation at 37° C., colonies scored after 7 days, mean + SD
# Experimental: Human Cell Line. HL-60 is a human acute promyelocytic leukemia cell line growing with a doubling time of 24 hours and a plating efficiency of 7-12% (148). The cell line was maintained in exponential growth in RPMI-1640 supplemented with 10% fetal calf serum (FCS-Hyclone, Logan, U.S.A.) 1% L-Glutamine at 37° C. in a humidified atmosphere of 5% CO2 air. Cell viability was always higher than 95% and cells were free of mycoplasma contamination.
# as §2, §4
# CFU-GM = assay: Clonogenic assay of normal bone marrow progenitors, CFU-GM; details: normal BM; 4HC 100 μM, VP-16 5 μg/ml; 1 hr at 37° C.; scored at day 14; mean ± SD vs control cultures
# Experimental: as §1, §2, §3, §4
structure (smiles),measurement,setting,value
O=P1(N(CCCl)CCCl)NC(OO)CCO1 (stereo not drawn) [4HC],COLONY FORMING INHIBITION BFU-E,BFU-E,80.3 ± 12.5%
same,colony-forming inhibition,HL-60 cell line,99.5+0.8%
same,COLONY FORMING INHIBITION CFU-GM,CFU-GM,84 ± 10%
